Assay results taken from patent publication US12528809B2, “Crystalline forms of gepotidacin” (GLAXOSMITHKLINE INTELLECTUAL PROPERTY DEVELOPMENT LIMITED, priority 2020, dated 2026).

Assays:
[1] = Physical form stability / conversion to Form 1; type: physicochemical
Protocol: The suspension was heated with a heat gun to dissolve most of the solids, and then left to slowly cool to room temperature. The resultant crystals were filtered and analysed by DSC, TGA, and XRPD.
Amorphous gepotidacin mesylate can be generated via lyophilization. Form 1 (150 mg) was dissolved MeCN/water (80/20 v/v; 1 mL). A clarifying filtration was performed and the filtrate was added to a 20 mL vial. The solution was frozen under liquid nitrogen and lyophilized for 4 hours.

[2] = Moisture sorption/desorption isotherms (DVS); conditions: first sorption cycle
From the text: The moisture sorption/desorption isotherms of gepotidacin mesylate dihydrate and gepotidacin HCl were obtained over a range of 5-90% relative humidity.

| Structure (SMILES) | physical form stability ([1]; amorphous by lyophilization from MeCN/water (80/20 v/v)) | physical form stability ([1]; amorphous by lyophilization of an aq. t-BuOH solution, ambient conditions) | critical RH step [2] [% RH] | uptake of water ([2]; critical step at 60% RH, indicates conversion to Form 1) [%] | physical form stability ([1]; ambient conditions) | physical form stability ([1]; ambient conditions, listed as Gepotidacin Mesylate Anhydrate (Form 2)) |
| --- | --- | --- | --- | --- | --- | --- |
| CS(=O)(=O)O.O.O.O=c1ccc2ncc(=O)n3c2n1C[C@H]3CN1CCC(NCc2cc3c(cn2)OCCC3)CC1 [Amorphous gepotidacin mesylate] | started to convert to Form 1 unless stored in a sealed vial with desiccant | physically stable for at least three days | – | – | – | – |
| CS(=O)(=O)O.O.O.O=c1ccc2ncc(=O)n3c2n1C[C@H]3CN1CCC(NCc2cc3c(cn2)OCCC3)CC1 [Gepotidacin mesylate anhydrate (Form 2)] | – | – | 60 | 4.8 | convert to Gepotidacin mesylate dihydrate (Form 1) after one hour | unstable under ambient conditions |
